Reference: US6630454B2, “Method and pharmaceutical composition for the treatment of cancer” (priority 2001, dated 2003)

How the values were obtained:
[1] = clinical studies, review (DeVita et al., 1993); cited from earlier work
[2] = highest safe dose used for accepted indications; cited from earlier work
[3] = tested on: PANC-1, C6, MCF-7, U2OS and HT1080 cells
Description: Studies similar in general to those outlined in the previous section, were conducted with five cell lines selected for this task (PANC-1, C6, MCF-7, U2OS and HT1080), increasing the length of the experiment to 48 hours. The studies were done with DOX and with Vinblastine (VIN or VLB).

C6 and PANC-1 cells = tested on: C6 and PANC-1 cells; set-up: dose or concentration left out as unconfirmed; details: […] μM fluoxetine alone, 24 hours

SMILES | side effects / dose-limiting toxicity when used as chemosensitizer [1] | highest safety limit [2] | potentiation of the cytotoxic effect of the chemotherapeutic drug [3] | effect of fluoxetine alone on cell survival (C6 and PANC-1 cells)
CC/C(=C(\c1ccccc1)c1ccc(OCCN(C)C)cc1)c1ccccc1 [tamoxifen] | attributed to the inherent toxicity of the chemosensitizer | – | – | –
CNCCC(Oc1ccc(C(F)(F)F)cc1)c1ccccc1 (centres unmarked) [fluoxetine, N-methyl 3-(p-trifluoromethylphenoxy)-3-phenylpropylamine] | – | 15 µM | potentiates the cytotoxic effect | does not affect cell survival at all
CN1CCN(CCCN2c3ccccc3Sc3ccc(C(F)(F)F)cc32)CC1 [trifluoperazine] | attributed to the inherent toxicity of the chemosensitizer | – | – | –
